Laboratory results: article PMC3116320 (Indian Journal of Pharmaceutical Sciences, 2010)

Tests used:
Test in all cases: Sulforhodamine-B
Assay type in all cases: cell-based
[1] = system: HOP62 lung cancer cell line; settings: Homo sapiens, HOP-62, read-out: IC50 anticancer evaluation Hop62
[2] = system: HT29 colon cancer cell line; settings: Homo sapiens, HT-29, read-out: IC50 anticancer evaluation HT29
[3] = system: MIA-PA-CA-2 pancreatic cancer cell line; settings: Homo sapiens, MIA PaCa-2, read-out: IC50 anticancer evaluation Miapaca-2
[4] = system: Colo205 colon cancer cell line; settings: Homo sapiens, COLO 205, read-out: IC50 anticancer evaluation Colo205
[5] = system: MCF7 breast cancer cell line; settings: Homo sapiens, MCF7, read-out: IC50 anticancer evaluation MCF

Measured: IC50

COc1cccc2c1C(=O)c1c(O)c3c(c(O)c1C2=O)C[C@@](O)(C(=O)CO)C[C@@H]3O[C@H]1C[C@H](N)[C@H](O)[C@H](C)O1 [Adriamycin]
< 15 µM: all assays above
